The source of these data is patent US5574061A, “Benzopyran derivative, process for producing the same and pharmaceutical composition containing the same” (priority 1990, dated 1996).

Where two headings read alike, the source gives them in different places.

In one test the test system is serum cholesterol. Kind of test: Percentage change of serum cholesterol in rats fed a feed enriched with cholesterol and fat. Particulars: Rattus norvegicus, po, 72 h, Wistar rats, vs control; for change in vivo at 10 mg/kg: 10 mg per kg orally once a day for three days; for change in vivo at 1 mg/kg: 1 mg/kg orally once a day for three days. Type of test: in vivo, male Wistar rats. An excerpt:
Percentage change of serum cholesterol
Male Wistar rats having a weight of 200 g were preliminarily bred for 7 days while they freely ingested a normal feed (CE-2 manufactured by CLEA Japan Inc.).
Thereafter, they were bred for 3 days while they freely ingested a feed enriched with cholesterol and fat (2% cholesterol, 1% cholic acid, 20% casein, 45% fine granulated sugar, 12% coconut oil, 4% KC flock, 1% mixed vitamin, 7% mixed mineral and 8% dried fish powder; a product of CLEA Japan Inc.). […] On the other hand, the excipient alone was administered to the control animals.
8 hr after the last administration, the test animals were fasted. 16 hr after the initiation of the fasting, these test animals were slaughtered. The serum cholesterol level was measured for each animal.
The results were compared with those of the control and are given as percentage serum cholesterol (%) in Table 3.
Percentage change of serum cholesterol (%)={(A-B)/B}×100
wherein A represents the total cholesterol level of serum in the group of rats to which the test compound was administered; and B represents the total cholesterol level of serum in the control group of rats.

In test [1] the target is T1, ACAT enzyme (rabbit intestinal mucosa microsome) (Oryctolagus cuniculus, UniProt G1SFD9).
T1 sequence (G1SFD9 1-524): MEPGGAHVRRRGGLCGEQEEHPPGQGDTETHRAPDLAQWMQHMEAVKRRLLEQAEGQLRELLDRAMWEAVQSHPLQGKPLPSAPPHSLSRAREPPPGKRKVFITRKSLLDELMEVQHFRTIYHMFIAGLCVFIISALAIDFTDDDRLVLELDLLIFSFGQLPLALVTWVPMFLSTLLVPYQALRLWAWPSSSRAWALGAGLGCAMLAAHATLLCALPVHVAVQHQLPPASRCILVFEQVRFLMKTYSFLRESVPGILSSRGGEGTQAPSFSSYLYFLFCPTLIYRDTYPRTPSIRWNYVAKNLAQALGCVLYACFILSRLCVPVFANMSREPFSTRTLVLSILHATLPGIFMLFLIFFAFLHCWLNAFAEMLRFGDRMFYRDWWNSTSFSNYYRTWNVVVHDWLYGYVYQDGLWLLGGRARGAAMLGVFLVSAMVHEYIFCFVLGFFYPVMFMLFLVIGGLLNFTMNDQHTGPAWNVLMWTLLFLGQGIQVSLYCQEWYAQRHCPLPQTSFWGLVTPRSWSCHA
Method: Measurement of ACAT enzyme inhibitory activity (measurement of ACAT enzyme inhibitory activity of rabbit intestinal mucosa)
Preparation of a domestic rabbit intestinal mucosa microsome and measurement of the ACAT enzyme activity were conducted by slightly modifying a method established by Salone and Field (see Biochemica et Biophysica, vol. 712, 557 (1982). The domestic rabbit intestinal mucosa was homogenized by using a 40 mM phosphate buffer having a pH value of 7.4 (buffer A) containing 30 mM EDTA, 50 mM KCl and 0.1M sucrose and centrifuged at 10,000×g and a temperature of 4° C. for 30 min to provide a supernatant. The supernatant was further centrifuged at 105,000×g and a temperature of 4° C. for one hr to provide a precipitate. The precipitate was resuspended in the buffer A to provide a microsome fraction.
1% v/v of a dimethylsulfoxide solution of each specimen compound in a predetermined concentration was added to the buffer A containing 43 μM serum albumin and 0.5 mg/ml microsome fraction, and the mixture was heated at 37° C. for 5 min.
Then, 43 μM oleoyl CoA containing [1-^14 C] oleoyl CoA (3.7 kB) was added thereto, the mixture was heated at 37° C. for 10 min, and chloroform/methanol (2/1) containing 10 mg/ml cholesteryl oleate was added thereto to terminate the reaction.
0.111 kB of [3H] cholesteryl oleate and 1N hydrochloric acid were added thereto, and the mixture was stirred. The cholesteryl oleate extracted into the chloroform layer was isolated by a thin-layer chromatography, and the radioactivity was measured as the ACAT activity.

With `CCCCCCCCCCC1(C(=O)Nc2c(OC)ccc3c(=O)ccoc23)CCCC1` [Ex. 50], the change in vivo at 10 mg/kg with serum cholesterol is -27%. Moreover, in test [1], the IC50 is 270 nM.

Take `CCCCCCCCCCC1(C(=O)Nc2c(C)ccc3c2OCCC3=O)CCCC1` [Ex. 20]: the change in vivo at 10 mg/kg in the test with serum cholesterol was -29%. Further, in test [1], the IC50 was determined as 170 nM.

The compound `Cc1cc(C)c2c(c1NC(=O)C(C)(C)CCCCCOc1ccc(Cl)cc1)OCCC2=O` [Ex. 44] came in with an IC50 in test [1] of 400 nM.

In test [1], `CCCCCCCCCCCCNC(=O)Nc1c(OC)ccc2c(=O)ccoc12` [Ex. 10] gave an IC50 of 330 nM.

`Cc1ccc2c(c1NC(=O)C(C)(C)CCCCOCCCC(C)C)OCCC2=O` [Ex. 26] gave an IC50 in test [1] of 340 nM.

Consider `Cc1ccc2c(c1NC(=O)C(C)(C)CCCCCc1ccccc1)OCCC2=O` [Ex. 25], for which the change in vivo at 10 mg/kg in the test with serum cholesterol is -32%. The compound further gave an IC50 in test [1] of 250 nM.

For the compound `COc1ccc2c(c1NC(=O)C(C)(C)CCCCCCc1ccccc1)OCCC2=O` [Ex. 38], in test [1], inhibition was half-maximal at 44 nM (IC50).

On to `CCCCCCCCCCC(C)(C)C(=O)Nc1c(OC)ccc2c1OCCC2=O` [Ex. 2, N-(7-Methoxy-4-chromanon-8-yl)-2,2-dimethyldodecanamide], for which, in test [1], half-maximal inhibition (IC50) was put at 13 nM.

In turn, `CCCCCCCCCCCCNC(=O)Nc1c(C)ccc2c1OCCC2=O` [Ex. 1, 1-Dodecyl-3-(7-methyl-4-chromanon-8-yl)urea] displayed an IC50 in test [1] of 73 nM.

As for `COc1ccc2c(c1NC(=O)C(C)(C)CCCCCCBr)OCCC2=O` [Ex. 37, N-(7-methoxy-4-chromanon-8-yl)-2,2-dimethyl-8-bromooctaneamide], the IC50 in test [1] was 25 nM.

Turning to `COc1ccc2c(c1NC(=O)C(C)(C)CCCCCOc1ccc(Cl)cc1)OCCC2=O` [Ex. 41], the change in vivo at 1 mg/kg in the test with serum cholesterol is -40%. Also, the midpoint of inhibition in test [1], the IC50, lay at 52 nM.

With `COc1ccc2c(=O)ccoc2c1NC(=O)C(C)(C)CCCCCOc1ccc(Cl)cc1` [Ex. 52], the change in vivo at 3 mg/kg in the test with serum cholesterol (3 mg/kg orally once a day for three days) is -17%. The half-inhibitory concentration (IC50) in test [1] came out at 160 nM.

As for `COc1ccc2c(c1NC(=O)NCC1(c3ccccc3)CCCC1)OCCC2(C)C` [Ex. 4], the IC50 in test [1] is 690 nM.

Consider `CCCCCCCCCCCCCCCC(=O)Nc1c(C)ccc2c1OCCC2=O` [Ex. 18], for which half-maximal inhibition in test [1] (IC50) was put at 7.8 nM.

In the case of `COc1ccc2c(c1NC(=O)C(C)(C)CCCCCCOc1ccc(Cl)cc1)OCCC2=O` [Ex. 42], the change in vivo at 1 mg/kg in the test on serum cholesterol was -51%. In test [1], this compound displayed an IC50 of 64 nM.

In turn, `Cc1ccc2c(c1NC(=O)NCC1(c3ccccc3)CCCC1)OCCC2=O` [Ex. 6] registered an IC50 in test [1] of 530 nM.

In test [1], `Cc1ccc2c(c1NC(=O)C(C)(C)CCCCOc1ccc(C(C)(C)C)cc1)OCCC2=O` [Ex. 30] gave an IC50 of 50 nM.

With `Cc1ccc2c(c1NC(=O)C(C)(C)CCCCCCOCCCC(C)C)OCCC2=O` [Ex. 29], the change in vivo at 10 mg/kg in the test on serum cholesterol is -22%. This compound also displayed an IC50 in test [1] of 200 nM.

Take `COc1ccc2c(c1NC(=O)C(C)(C)CCCCCCOc1ccc(Cl)cc1)C(=O)CCO2` [Ex. 45]: the IC50 in test [1] worked out at 180 nM.

For `CCCCCCCCCCC(C)(C)C(=O)Nc1c(C)ccc2c1OCCC2=O` [Ex. 19], the change in vivo at 10 mg/kg with serum cholesterol is -27%. Half-maximal inhibition in test [1] (IC50) was put at 210 nM.

Consider `Cc1ccc2c(c1NC(=O)C(C)(C)CCCCCCOCC(C)(C)C)OCCC2=O` [Ex. 28], for which, in the test on serum cholesterol, the change in vivo at 10 mg/kg is -31%. The 50% inhibitory concentration (IC50) in test [1] amounted to 54 nM.

On to `COc1ccc(C2(CNC(=O)Nc3c(C)ccc4c3OCCC4=O)CCCC2)cc1` [Ex. 7], for which half-maximal inhibition in test [1] (IC50) was put at 500 nM.

In test [1], `COc1ccc2c(c1NC(=O)C(C)(C)CCCCCCOc1ccc(N(C)C)cc1)OCCC2=O` [Ex. 55, N-(7-Methoxy-4-chromanon-8-yl)-2,2-dimethyl-8-p-dimethylaminophenoxyoctaneamide] gave an IC50 of 81 nM.

For the compound `CCCCCCCCCCC(C)(C)C(=O)Nc1c(Cl)ccc2c1OCCC2=O` [Ex. 47], the midpoint of inhibition in test [1], the IC50, lay at 150 nM.

Consider `Cc1cc(C)c2c(c1NC(=O)C(C)(C)CCCCCCOCC(C)C)OCCC2=O` [Ex. 43], for which, in test [1], inhibition was half-maximal at 90 nM (IC50).

For `CCCCCCCCCCCCCCC(C)(C)C(=O)Nc1c(OC)ccc2c(=O)ccoc12` [Ex. 49], in test [1] (read-out: ACAT Inhibitory Activity, IC50, rabbit intestinal mucosa microsome, [1-14C] oleoyl CoA, 37° C.), the concentration for half-maximal inhibition (IC50) is 52 nM.

`COc1ccc2c(c1NC(=O)C(C)(C)CCCCCCOc1ccc(C)cc1)OCCC2=O` [Ex. 40] displayed an IC50 in test [1] of 43 nM.

In the case of `CCCCCCCCCCCCNC(=O)Nc1c(OC)ccc2c1OCCC2(C)C` [Ex. 3], in test [1], the IC50 amounted to 340 nM.

As to `CCCCCCCCCCC(C)(C)C(=O)Nc1c(OCCC)ccc2c1OCCC2=O` [Ex. 48], in test [1], the half-inhibitory concentration (IC50) was found to be 14 nM.

Consider `CCCCCCCCCCC(C)(C)C(=O)Nc1c(OC)ccc2c(=O)cc(CC)oc12` [Ex. 54], for which, in test [1], the IC50 was 780 nM.

With `CCCCCCCCCCC1(C(=O)Nc2ccc(OC)c3c2OCCC3(C)C)CCCC1` [Ex. 13], half-maximal inhibition in test [1] (IC50) was put at 1200 nM.

`Cc1ccc2c(c1NC(=O)C(C)(C)CCCCCOc1ccc(Cl)cc1)OCCC2=O` [Ex. 32]: the change in vivo at 10 mg/kg in the test with serum cholesterol was -33%. Further, half-maximal inhibition in test [1] (IC50) required 470 nM.

In test [1], `COc1ccc2c(=O)ccoc2c1NC(=O)C(C)(C)CCCCOc1ccc(C(C)(C)C)cc1` [Ex. 51] registered an IC50 of 190 nM.

On to `Cc1ccc2c(c1NC(=O)C(C)(C)CCCCOc1ccc(Cl)cc1)OCCC2=O` [Ex. 31], for which the IC50 in test [1] came to 510 nM.

One may read the IC50 as the midpoint of a concentration-inhibition curve.
